Measured values: paper PMC3911951, “Crystal Structure of Arginine Methyltransferase 6 from Trypanosoma brucei” (PLoS ONE, 2014)

Columns and labels:
TbPRMT6 [1] = molecular target: T1, TbPRMT6 (Trypanosoma brucei, UniProt Q57U70); experiment: X-ray crystal structure, […] A; conditions: co-crystallised with three-fold molar excess SAH; 100 mM citrate pH 5.5, 20% PEG3000, 293 K; SAM-binding pocket
T1 construct: gene Tb05.6E7.1000; full-length, E. coli BL21(DE3), modified pET28a, N-terminal 6xHis cut by TEV protease; 41 kDa monomer, homodimer; residues 1-24 and 228-229 disordered in crystal
T1 sequence (Q57U70 1-368): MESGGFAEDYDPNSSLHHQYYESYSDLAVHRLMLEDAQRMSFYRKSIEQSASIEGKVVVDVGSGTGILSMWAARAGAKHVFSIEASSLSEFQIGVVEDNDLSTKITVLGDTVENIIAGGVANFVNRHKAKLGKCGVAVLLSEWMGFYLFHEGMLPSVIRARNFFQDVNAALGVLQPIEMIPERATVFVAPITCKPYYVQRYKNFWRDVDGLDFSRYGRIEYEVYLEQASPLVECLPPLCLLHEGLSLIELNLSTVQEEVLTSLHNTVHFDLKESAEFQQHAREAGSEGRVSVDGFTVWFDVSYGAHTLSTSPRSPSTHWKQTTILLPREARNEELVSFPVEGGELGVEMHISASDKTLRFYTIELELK

TbPRMT6 [2] = molecular target: T1, TbPRMT6; experiment: in vitro methylation of Trx-H4tail, western blot for asymmetric dimethyl H4R3; format: biochemical; conditions: 40 uM SAM, 1 ug Trx-H4tail (bovine histone H4 residues) as co-substrate; 30 mM Tris pH 8.0, 100 mM NaCl, 1 mM EDTA, 5 mM DTT, 37 C, 12 h

SMILES | X-ray crystal structure, 2.35 A (TbPRMT6 [1]) | in vitro methylation of Trx-H4tail, western blot for asymmetric dimethyl H4R3 (TbPRMT6 [2])
Nc1ncnc2c1ncn2[C@@H]1O[C@H](CSCC[C@H](N)C(=O)O)[C@@H](O)[C@H]1O [SAH, S-adenosyl-homocysteine] | Structures of apo-TbPRMT6 and in complex with SAH (SAH-TbPRMT6) were resolved and refined | –
C[S+](CC[C@H](N)C(=O)O)C[C@H]1O[C@@H](n2cnc3c(N)ncnc32)[C@H](O)[C@@H]1O (stereo partly drawn) [SAM, S-adenosyl-L-methionine] | – | our result also showed that TbPRMT6 can methylate bovine histone H4R3
